The values that follow are results of earlier work, collected in US10633811B1, “Apparatus and method for collecting and disposing of pet waste” (COSMIC PET LLC, priority 2017, dated 2020).

One data set has as its system E. faecalis ATCC 29212. To be noted: Table 3, single compounds; Nutrient Broth No. 2, 37° C., Tween 80 0.002% vol/vol.
The subject of another data set is C. coli ATCC 43484. To be noted: Table 3, single compounds; Nutrient Broth No. 2, 37° C., Tween 80 0.002% vol/vol.
In a further data set the test system is C. jejuni 3393. Conditions: Table 3, single compounds; Nutrient Broth No. 2, 37° C., Tween 80 0.002% vol/vol.
Data set [1] concerns S. typhimurium ATCC 14028. To be noted: Table 3, single compounds; Nutrient Broth No. 2, 37° C., Tween 80 0.002% vol/vol.
The subject of the next data set is E. coli O26. Conditions: Table 3, single compounds; Nutrient Broth No. 2, 37° C., Tween 80 0.002% vol/vol.
A further data set deals with C. jejuni C338. Conditions: Table 3, single compounds; Nutrient Broth No. 2, 37° C., Tween 80 0.002% vol/vol.
Data set [2] relates to Pseudomonas aeruginosa PAO1. Conditions: CAMHB, 0.1% Tween 80.
A further data set has as its system Campylobacter spp. To be noted: against Campylobacter spp., E. coli, S. typhimurium, and E. faecalis.
The test system of a further data set is Campylobacter jejuni. To be noted: strain not given.

For α-Bisabolol, in the data set on E. faecalis ATCC 29212, the “E. faecalis ATCC 29212 (MIC %)” value is recorded as over 2%. Besides, the “C. coli ATCC 43484 (MIC %)” value in the data set with C. coli ATCC 43484 is listed as 0.5%. Also, the “C. jejuni 3393 (MIC %)” value in the data set with C. jejuni 3393 is on record as 0.125%. In data set [1], the “S. typhimurium ATCC 14028 (MIC %)” value was over 2%. The “E. coli O26 (MIC %)” value in the data set on E. coli O26 is listed as 2%. Besides, the “C. jejuni C338 (MIC %)” value in the data set on C. jejuni C338 is on record as 0.5%.
On to `CC12CCC(CC1)C(C)(C)O2` [Cineole], for which, in the data set on E. faecalis ATCC 29212, the “E. faecalis ATCC 29212 (MIC %)” value is on record as over 2%. Further, the “C. coli ATCC 43484 (MIC %)” value in the data set with C. coli ATCC 43484 is given as 0.25%. Also, the “C. jejuni 3393 (MIC %)” value in the data set with C. jejuni 3393 was 0.25%. Moreover, the “S. typhimurium ATCC 14028 (MIC %)” value in [1] is on record as 2%. The “E. coli O26 (MIC %)” value in the data set with E. coli O26 is 1%. In addition, the “C. jejuni C338 (MIC %)” value with C. jejuni C338 is recorded as 0.25%.
Regarding `C=CC(C)(O)CCC=C(C)CCC=C(C)C` (stereo not shown) [Nerolidol], the “E. faecalis ATCC 29212 (MIC %)” value in the data set with E. faecalis ATCC 29212 is given as over 2%. In addition, the “C. coli ATCC 43484 (MIC %)” value with C. coli ATCC 43484 is reported as 1%. For the same molecule, the “C. jejuni 3393 (MIC %)” value with C. jejuni 3393 is on record as 0.5%. Besides, the “S. typhimurium ATCC 14028 (MIC %)” value in [1] is over 2%. Further, in the data set with E. coli O26, the “E. coli O26 (MIC %)” value was over 2%. Also, the “C. jejuni C338 (MIC %)” value in the data set with C. jejuni C338 is given as 0.5%.
`C=CCc1ccc(O)c(OC)c1` [Eugenol]: the MIC in data set [2] was over 5%.
With `O=CC=Cc1ccccc1` [Cinnamaldehyde], in data set [2], the MIC was 0.1%.
For `C=CC(C)(O)CCC=C(C)C` (stereo not shown) [Linalool], in data set [2], the MIC is recorded as over 5%.
Regarding `CC1=CCC(O)(C(C)C)CC1` (stereo not shown) [Terpinen-4-ol], in the data set on E. faecalis ATCC 29212, the “E. faecalis ATCC 29212 (MIC %)” value is 0.5%. Further, the “C. coli ATCC 43484 (MIC %)” value in the data set with C. coli ATCC 43484 was 0.06%. Moreover, in the data set on C. jejuni 3393, the “C. jejuni 3393 (MIC %)” value was 0.06%. For the same molecule, the “S. typhimurium ATCC 14028 (MIC %)” value in data set [1] is on record as 0.06%. The “E. coli O26 (MIC %)” value in the data set with E. coli O26 was 0.06%. The “C. jejuni C338 (MIC %)” value in the data set on C. jejuni C338 is recorded as 0.06%. The “antimicrobial activity among single compounds” value with Campylobacter spp. is “highest activity”.
As to `Cc1ccc(C(C)C)cc1O` [Carvacrol], in the data set with Campylobacter jejuni, the “concentration that inhibits Campylobacter jejuni” value is 0.3 to 0.4 mM. Further, in the data set with C.jejuni 81116, the “C.jejuni 81116 MIC” value is 300 to 400 µM. Also, in the data set with C.jejuni 108, the “C.jejuni 108 MIC” value is 300 to 400 µM.
For `CC1=CC=C(C(C)C)CC1` [α-Terpinene], the “E. faecalis ATCC 29212 (MIC %)” value in the data set on E. faecalis ATCC 29212 was over 2%. Further, the “C. coli ATCC 43484 (MIC %)” value in the data set on C. coli ATCC 43484 is 0.125%. Also, the “C. jejuni 3393 (MIC %)” value in the data set on C. jejuni 3393 is on record as 0.125%. The “S. typhimurium ATCC 14028 (MIC %)” value in [1] is on record as over 2%. In addition, in the data set on E. coli O26, the “E. coli O26 (MIC %)” value is given as over 2%. Also, in the data set with C. jejuni C338, the “C. jejuni C338 (MIC %)” value is 0.25%.
